Results: patent EP1963277B1, “FLUORINATED COMPOUNDS” (priority 2005, dated 2007)
Read-outs that look alike come from different tables or passages of the source.

How the values were obtained:
Type in all cases: in vivo
Male, CD-1 mice = assay: Maximal Electroshock Assay (mouse); settings: for ED50: oral pretreatment, range in parentheses
Method: Male, CD-1 mice (20-30g body weight) were orally pretreated with test compound or vehicle control, and either at 1h or 4h post dose a maximal electroshock (45mA amplitude, 0.2s duration, 60Hz) was applied by corneal electrodes. Protection was defined by the absence of a tonic extensor seizure in the animal within 20s of application of the electrical stimulus, which typically occurred in all vehicle pretreated animals. Animals received only one electroshock and so separate animals were used for the 1h and 4h timepoints. All drugs were administered in multiple doses.

[1] = tested on: Male, Sprague-Dawley rats; assay: Maximal Electroshock Assay (rat); settings: for ED50: oral pretreatment, range in parentheses
Method: Male, Sprague-Dawley rats (approx. 100g body weight) were prescreened for tonic seizure susceptibility prior to drug testing. […] Protection was defined by the absence of a tonic extensor seizure in the animal within 20s of application of the electrical stimulus, which typically occurred in all vehicle pretreated animals. Animals received only one electroshock on the drug test day and so separate animals were used for the 0.5h and 4h timepoints. All drugs were administered in multiple doses.

rats = assay: Persistent Inflammatory Pain (Formalin Model); settings: Rattus norvegicus, formalin test, 30 min pretreatment; for inhibition at 30 mg/kg: ip, i.p.; for inhibition at 60 mg/kg: po, p.o.
Method: The formalin test is a chemically-induced tonic pain model in which injection of formalin into a hind paw elicits a biphasic nociceptive behavior. The second phase of formalin response is predominantly due to a central sensitization phenomenon. Most clinically used drugs against neuropathic pain arc active on this second phase of formalin response. Formalin test is accepted as a valid model of persistent clinical pain.
The test was done by pretreating the rats with the test compound and 30 min later (pretreatment time), 50 µl of 2.5% formalin was injected into the right hind paw of the animal. The number of paw licking and flinching episodes were scored for 60 min post-formalin injection.
The compounds were administered either intraperitoneally (30 mg/kg) or orally (60 mg/kg).

SNI rats [2] = assay: Spared Nerve Injury (SNI) model, mechanical allodynia (Dynamic Plantar Aesthesiometer); settings: for withdrawal threshold, Post Admin 30 min / withdrawal threshold, Post Admin 60 min / withdrawal threshold, Post Admin 180 min: *** P<0.001 vs Pre-Admin.; for withdrawal threshold, Pre-Admin. 0 min: baseline before administration
Method: (§1) The compounds were tested for their efficacy in reducing mechanical allodynia and cold allodynia in the spared nerve injury (SNI) model of chronic neuropathic pain. In this model, the left sciatic nerve of the rat is exposed under anesthesia. Two of the branches of the sciatic nerve viz. the common peroneal and tibial nerve are ligated and sectioned. The third branch (sural nerve) is left intact. The animals were allowed a post-operative recovery period of 7 days before they were subjected to any test.
The presence of mechanical allodynia was assessed using the Dynamic Plantar Aesthesiometer (Ugo Basile, Italy) which is a modified version of the Von Frey Hair test. In this, a test filament is positioned below the animal's hind paw and the unit is activated which causes the filament to move up and touch the plantar surface of the hind paw. Increasing force is applied to the paw via the filament. […] The cut-off force is set at 50 g. The tests were done on both the non-injured (control) and the injured (SNI) paw.
Testing of compounds was done after 21 days post-operatively. After initial basal readings were taken, the test compound or the vehicle was administered (10 ml/kg) either intraperitoneally (30 mg/kg) or orally (60 mg/kg). The readings were taken again 30, 60 and 180 min after the compound/vehicle administration.

SNI rats [3] = assay: Spared Nerve Injury (SNI) model, cold allodynia (acetone test); settings: for duration (s) of nociceptive response, Post Admin 30 min: *** P<0.001 vs Pre-Admin.; for duration (s) of nociceptive response, Pre-Admin. 0 min: baseline before administration
Method: as §1
Cold allodynia was assessed by using the acetone test. In this model, 25 µl of acetone is sprayed on to the plantar surface of the hind paw. Evaporation of acetone causes cooling of the skin. The cold stimulus sets up nociceptive responses from the injured paw as evidenced by paw lifting, paw licking and grooming. The duration of the nociceptive responses is noted.
Testing of compounds was done after 21 days post-operatively. After initial basal readings were taken, the test compound or the vehicle was administered (10 ml/kg) either intraperitoneally (30 mg/kg) or orally (60 mg/kg). The readings were taken 30 min after the administration.

FCA-treated rats [4] = assay: Freund's Complete Adjuvant (FCA) model, mechanical allodynia (modified Randall-Selitto method); settings: p.o.
Method: (§2) Administration of FCA to the hind paw of an animal induces the formation of a localized edema and has been widely used as a model of chronic inflammatory pain. 100 µl of FCA is injected subcutaneously into the dorsal aspect of the left hind paw of the rats. The edema appears within 2 h reaches a peak by 6h and lasts for about 7 days. The effects of compounds on mechanical allodynia and paw volume were studied 2 days after FCA administration.
The effect of the compounds in alleviating mechanical allodynia was assessed in the FCA-treated rats using the modified Randall-Selitto method (Analgesy-Meter, Ugo Basile, Italy). The animal's paw is placed on a small plinth under a cone-shaped pusher. Increasing force is applied to the paw by depressing a pedal until vocalization or withdrawal of the paw occurs. The minimum force required to elicit this vocalization/withdrawal is the paw pressure threshold. The cut-off was set at 150 g.
After the initial basal (control) readings were taken, the test compound (60 mg/kg)/vehicle was administered orally in a volume of 10 ml/kg. The paw pressure thresholds were measured 30, 60 and 180 min post administration. […] Some of the compounds were effective even at 60 and 180 min post administration.

FCA-treated rats [5] = assay: Freund's Complete Adjuvant (FCA) model, paw edema/volume (plethysmometer); settings: p.o.
Method: as §2
The edema/volume of the paw is a measure of inflammation induced by FCA. This was measured by using a plethysmometer (Ugo Basile, Italy). In this, the paw of the rat is immersed in a reservoir of water and the volume of water displaced indicates the paw volume.
After the initial basal (control) readings were taken, the test compound (60 mg/kg)/vehicle was administered orally in a volume of 10 ml/kg.

[6] = read-out: MES oral ED50 4h, mouse, electroshock 4h post dose
[7] = read-out: MES oral ED50 0.5h, rat, electroshock 0.5h post dose
[8] = read-out: MES oral ED50 4h, rat, electroshock 4h post dose
[9] = group later given 30 mg/kg, i.p.
[10] = group later given 60 mg/kg, p.o.
[11] = 60 mg/kg, ** P<0.01, *** P<0.001 vs Pre-Admin.
[12] = group later given 60 mg/kg, baseline before administration

In the case of `COC[C@@H](NC(C)=O)C(=O)NCc1ccccc1` [Lacosamide, R-2-acetamido-N-benzyl-3-methoxy-propanamide, reference compound], the ED50 (Male, CD-1 mice; [6]) is reported as 32 mg/kg, the ED50 [1, 7] is reported as 1.8 mg/kg and the ED50 [1, 8] is reported as 8.3 mg/kg.

For `CC(=O)NC(COC(F)F)C(=O)NCc1ccc(F)cc1` (stereo not drawn) [Compound 4, 2-(Acetylamino)-3-(difluoromethoxy)-N-(4-fluoro-benzyl)propanamide], the duration of action (Male, CD-1 mice; mouse MES, judged by similar potency at 1h and 4h pretreatment timepoints) was “longer than Lacosamide”, the “Ratio ED50 4h vs. 1h” value (Male, CD-1 mice; mouse, oral) was 1.0 and the “shift in ED50 for 1 vs. 4h” value (Male, CD-1 mice; mouse, oral) was 1 to 3.5 fold. For the same compound, the ED50 (Male, CD-1 mice; mouse, electroshock 1h post dose, blockade of tonic extensor seizure, read-out: MES oral ED50 1h) was 9.8 mg/kg, the ED50 (Male, CD-1 mice; [6]) was 9.8 mg/kg and the duration of action ([1]; rat MES, judged by similar potency at 0.5h and 4h pretreatment timepoints) was “longer than Lacosamide”. For the same compound, the “Ratio ED50 4h vs. 0.5h” value ([1]; rat, oral) was 1.0, the “shift in ED50 for 0.5 vs. 4h” value ([1]; rat, oral) was 1 to 1.4 fold and the ED50 [1, 7] was 3.3 mg/kg. The ED50 [1, 8] was 3.4 mg/kg, the inhibition at 30 mg/kg (rats; *** P<0.001, read-out: %Inhibition Phase I) was 94.7 ± 5.3% and the inhibition at 30 mg/kg (rats; *** P<0.001, read-out: %Inhibition Phase II) was 81.6 ± 10%. For the same compound, the inhibition at 60 mg/kg (rats; ** P<0.01, *** P<0.001, read-out: %Inhibition Phase II) was 41.9 ± 9%, the inhibition at 60 mg/kg (rats; read-out: %Inhibition Phase I) was 7.6 ± 6.7% and the “withdrawal threshold, Post Admin 30 min” value (SNI rats [2]; 30 mg/kg, i.p.) was 16.7 ± 1.4*** g. For the same compound, the “withdrawal threshold, Post Admin 60 min” value (SNI rats [2]; 30 mg/kg, i.p.) was 15.0 ± 0.8*** g, the “withdrawal threshold, Post Admin 180 min” value (SNI rats [2]; 30 mg/kg, i.p.) was 13.2 ± 1.0*** g and the “withdrawal threshold, Post Admin 30 min” value (SNI rats [2]; 60 mg/kg, p.o.) was 15.4 ± 1.1*** g. The “withdrawal threshold, Post Admin 60 min” value (SNI rats [2]; 60 mg/kg, p.o.) was 16.2 ± 1.7*** g, the “withdrawal threshold, Post Admin 180 min” value (SNI rats [2]; 60 mg/kg, p.o.) was 7.9 ± 0.6 g and the “withdrawal threshold, Pre-Admin. 0 min” value (SNI rats [2]; [9]) was 6.7 ± 0.7 g. The “withdrawal threshold, Pre-Admin. 0 min” value (SNI rats [2]; [10]) was 7.5 ± 0.5 g, the “duration (s) of nociceptive response, Post Admin 30 min” value (SNI rats [3]; 30 mg/kg, i.p.) was 3.1 ± 2.1*** s and the “duration (s) of nociceptive response, Post Admin 30 min” value (SNI rats [3]; 60 mg/kg, p.o.) was 21.9 ± 6.4*** s. The “duration (s) of nociceptive response, Pre-Admin. 0 min” value (SNI rats [3]; [9]) was 48.2 ± 10.1 s, the “duration (s) of nociceptive response, Pre-Admin. 0 min” value (SNI rats [3]; [10]) was 56.2 ± 8.4 s and the “paw withdrawal threshold (g), Post Admin 30 min” value (FCA-treated rats [4]; [11]) was 58.3 ± 4.8** g. The “paw withdrawal threshold (g), Post Admin 60 min” value (FCA-treated rats [4]; [11]) was 49.4 ± 6.4** g, the “paw withdrawal threshold (g), Post Admin 180 min” value (FCA-treated rats [4]; [11]) was 51.1 ± 8.9** g and the “paw withdrawal threshold (g), Pre-Admin. 0 min” value (FCA-treated rats [4]; [12]) was 33.9 ± 4.2 g. For the same compound, the “paw volume (ml), Post Admin 30 min” value (FCA-treated rats [5]; 60 mg/kg) was 2.08 ± 0.0 mL, the “paw volume (ml), Post Admin 60 min” value (FCA-treated rats [5]; 60 mg/kg) was 2.11 ± 0.0 mL and the “paw volume (ml), Pre-Admin. 0 min” value (FCA-treated rats [5]; [12]) was 2.01 ± 0.0 mL.
